From patent US20180162862A1 (President and Fellows of Harvard College, priority 2015, published 2018)
Values after ≈ are worked out from the molar mass of the structure shown. Like-named read-outs stand apart in the source and are kept apart here.

How the values were obtained:
Assay type in all cases: cell-based
S. aureus ATCC 29213 = test: MIC test according to CLSI M7-A9, S. aureus ATCC 29213; conditions: Staphylococcus aureus, ATCC29213, CLSI M7-A9, CAMHB
Experimental: (§1) MIC Test (S. aureus ATCC 29213, S. aureus ATCC 43300 and S. aureus Newman)
(§2) Susceptibility testing of S. aureus ATCC 29213, ATCC 43300 and Newman was performed according to Clinical Laboratory Standard Institute (CLSI) guidelines M7-A9. Test articles were stored at room temperature prior to use, then dissolved in filtered sterile DMSO. Stock DMSO solutions were diluted further in cation-adjusted Mueller Hinton broth (CAMHB) to provide appropriate test concentrations. Cultures of S. aureus (ATCC 29213, ATCC 43300 or Newman) were added in accordance with CLSI guidelines and plates incubated at 37° C. in air for 24 h. Endpoints were determined visually (and by spectrophotometer at 600 nm) and the minimum inhibitory concentration (MIC) defined as the lowest concentration of test articles resulting in complete inhibition of visible bacterial growth. Results are detailed in Table 2 (S. aureus ATCC 29213 and ATCC 43300) and Table 3 (S. aureus ATCC 29213, ATCC 43300 and Newman).

S. aureus ATCC 43300 = test: MIC test according to CLSI M7-A9, S. aureus ATCC 43300; conditions: Staphylococcus aureus, ATCC43300; CLSI M7-A9, CAMHB, 24 h (Table 2); read-out: S. aureus ATCC 43300 MIC at 24 h
Experimental: as §1, §2

S. aureus Newman = test: MIC test according to CLSI M7-A9, S. aureus Newman; conditions: Staphylococcus aureus, CLSI M7-A9, CAMHB, 24 h (Table 3), read-out: S. aureus ATCC Newman MIC
Experimental: as §1, §2

[1] = 24 h (Table 2), read-out: S. aureus ATCC 29213 MIC at 24 h
[2] = 24 h (Table 3), read-out: S. aureus ATCC 29213 MIC

MIC (S. aureus ATCC 29213; [1]) | MIC (S. aureus ATCC 43300) | MIC (S. aureus ATCC 29213; [2]) | MIC (S. aureus Newman) | SMILES
32 µg/mL (≈ 68 µM) | 128 µg/mL (≈ 272 µM) |  |  | CC(C)(C)c1ccc(-c2nc(NC3CCN(C(=O)c4ccccc4)CC3)n3[nH]c(=O)cc3n2)cc1 [Example 63, 4-[(1-benzoylpiperidin-4-yl)amino]-2-(4-tert-butylphenyl)-6H,7H-pyrazolo[1,5-a][1,3,5]triazin-7-one]
128 µg/mL (≈ 277 µM) | > 128 µg/mL |  |  | CC(C)(C)c1ccc(-c2nc(NC3CCN(C(=O)c4nnc[nH]4)CC3)n3[nH]c(=O)cc3n2)cc1 [Example 64, 2-(4-tert-butylphenyl)-4-{[11-(4H-1,2,4-triazole-3-carbonyl)piperidin-4-yl]amino}-6H,7H-pyrazolo[1,5-a][1,3,5]triazin-7-one]
4 µg/mL (≈ 8.33 µM) | 4 µg/mL (≈ 8.33 µM) |  |  | Cc1cc(OCCC(C)Nc2nc(-c3ccc(C(C)(C)C)cc3)nc3cc(=O)[nH]n23)ccc1Cl (centres unmarked) [Example 65, 2-(4-tert-butylphenyl)-4-{[4-(4-chloro-3-methylphenoxy)butan-2-yl]amino}-6H,7H-pyrazolo[1,5-a][1,3,5]triazin-7-one]
4 µg/mL (≈ 8.28 µM) | 2 µg/mL (≈ 4.14 µM) |  |  | Cc1cc(NCC(F)CNc2nc(-c3ccc(C(C)(C)C)cc3)nc3cc(=O)[nH]n23)ccc1Cl (centres unmarked) [Example 66, 2-(4-tert-butylphenyl)-4-({3-[(4-chloro-3-methylphenyl)amino]-2-fluoropropyl}amino)-6H,7H-pyrazolo[1,5-a][1,3,5]triazin-7-one]
> 64 µg/mL | > 64 µg/mL |  |  | Cc1ccc(-c2nc(NCCCOc3ccc(Cl)c(C)c3)n3[nH]c(=O)cc3n2)cc1 [Example 67, 4-{[3-(4-chloro-3-methylphenoxy)propyl]amino}-2-(4-methylphenyl)-6H,7H-pyrazolo[1,5-a][1,3,5]triazin-7-one]
32 µg/mL (≈ 77.2 µM) | > 32 µg/mL |  |  | Cc1ccc(-c2nc(NC3CCN(Cc4ccccc4)CC3)n3[nH]c(=O)cc3n2)cc1 [Example 69, 4-[(1-benzylpiperidin-4-yl)amino]-2-(4-methylphenyl)-6H,7H-pyrazolo[1,5-a][1,3,5]triazin-7-one]
8 µg/mL (≈ 16.5 µM) | 8 µg/mL (≈ 16.5 µM) |  |  | Cc1cc(OCCCNc2nc(-c3ccc(C(C)(C)C)cc3)nc3c(F)c(=O)[nH]n23)ccc1Cl [Example 71, 2-(4-tert-butylphenyl)-4-{[3-(4-chloro-3-methylphenoxy)propyl]amino}-8-fluoro-6H,7H-pyrazolo[1,5-a][1,3,5]triazin-7-one]
 |  | 4 µg/mL (≈ 8.76 µM) | 4 µg/mL (≈ 8.76 µM) | CC(C)(C)c1ccc(-c2nc(NCCCN3CCCc4ccccc43)n3[nH]c(=O)cc3n2)cc1 [Example 76, 2-(4-tert-butylphenyl)-4-{[3-(1,2,3,4-tetrahydroquinolin-1-yl)propyl]amino}-6H,7H-pyrazolo[1,5-a][1,3,5]triazin-7-one]
 |  | 64 µg/mL (≈ 161 µM) | 64 µg/mL (≈ 161 µM) | CC(C)(C)c1ccc(-c2nc(N3CCN(CCO)CC3)n3[nH]c(=O)cc3n2)cc1 [Example 77, 2-(4-tert-butylphenyl)-4-[4-(2-hydroxyethyl)piperazin-1-yl]-6H,7H-pyrazolo[1,5-a][1,3,5]triazin-7-one]
 |  | 32 µg/mL (≈ 70.7 µM) | 32 µg/mL (≈ 70.7 µM) | CCCCN(CCCC)CCCNc1nc(-c2ccc(C(C)(C)C)cc2)nc2cc(=O)[nH]n12 [Example 78, 2-(4-tert-butylphenyl)-4-{[3-(dibutylamino)propyl]amino}-6H,7H-pyrazolo[1,5-a][1,3,5]triazin-7-one]
 |  | 32 µg/mL (≈ 67.7 µM) | 16 µg/mL (≈ 33.9 µM) | CC(C)(C)c1ccc(-c2nc(NCC3CN(Cc4ccccc4)CCO3)n3[nH]c(=O)cc3n2)cc1 (centres unmarked) [Example 79, 4-{[(4-benzylmorpholin-2-yl)methyl]amino}-2-(4-tert-butylphenyl)-6H,7H-pyrazolo[1,5-a][1,3,5]triazin-7-one]
 |  | 16 µg/mL (≈ 40.2 µM) | 8 µg/mL (≈ 20.1 µM) | CC(C)(C)c1ccc(-c2nc(NCc3ccc(C#N)cc3)n3[nH]c(=O)cc3n2)cc1 [Example 84, 4-({[2-(4-tert-butylphenyl)-7-oxo-6H,7H-pyrazolo[1,5-a][1,3,5]triazin-4-yl]amino}methyl)benzonitrile]
 |  | 2 µg/mL (≈ 3.63 µM) | 1 µg/mL (≈ 1.81 µM) | Cc1cc(OCCCN(CCCN(C)C)c2nc(-c3ccc(C(C)(C)C)cc3)nc3cc(=O)[nH]n23)ccc1Cl [Example 86, 2-(4-tert-butylphenyl)-4-{[3-(4-chloro-3-methylphenoxy)propyl][3-(dimethylamino)propyl]amino}-6H,7H-pyrazolo[1,5-a][1,3,5]triazin-7-one]
 |  | > 128 µg/mL | 128 µg/mL (≈ 280 µM) | CC(C)(C)c1ccc(-c2nc(NCC(=O)NC3Cc4ccccc4C3)n3[nH]c(=O)cc3n2)cc1 [Example 88, 2-{[2-(4-tert-butylphenyl)-7-oxo-6H,7H-pyrazolo[1,5-a][1,3,5]triazin-4-yl]amino}-N-(2,3-dihydro-1H-inden-2-yl)acetamide]
 |  | 8 µg/mL (≈ 16.2 µM) | 8 µg/mL (≈ 16.2 µM) | CC(C)(C)c1ccc(-c2nc(NCC(F)(F)CNC3Cc4ccccc4C3)n3[nH]c(=O)cc3n2)cc1 [Example 89, 2-(4-tert-Butylphenyl)-4-({3-[(2,3-dihydro-1H-inden-2-yl)amino]-2,2-difluoropropyl}amino)-6H,7H-pyrazolo[1,5-a][1,3,5]triazin-7-one]
 |  | 32 µg/mL (≈ 70.1 µM) | 16 µg/mL (≈ 35 µM) | CC(C)(C)c1ccc(-c2nc(NCCCN3CCc4ccccc4C3)n3[nH]c(=O)cc3n2)cc1 [Example 91, 2-(4-tert-butylphenyl)-4-{[3-(1,2,3,4-tetrahydroisoquinolin-2-yl)propyl]amino}-6H,7H-pyrazolo[1,5-a][1,3,5]triazin-7-one]
 |  | 16 µg/mL (≈ 42.1 µM) | 8 µg/mL (≈ 21 µM) | CC(C)(C)c1nc(NCCCNC2Cc3ccccc3C2)n2[nH]c(=O)cc2n1 [Example 95, 2-tert-butyl-4-({3-[(2,3-dihydro-1H-inden-2-yl)amino]propyl}amino)-6H,7H-pyrazolo[1,5-a][1,3,5]triazin-7-one]
 |  | 128 µg/mL (≈ 486 µM) | 32 µg/mL (≈ 122 µM) | CCCCNc1nc(C(C)(C)C)nc2cc(=O)[nH]n12 [Example 96, 2-tert-butyl-4-(butylamino)-6H,7H-pyrazolo[1,5-a][1,3,5]triazin-7-one]
 |  | 128 µg/mL (≈ 336 µM) | 64 µg/mL (≈ 168 µM) | CC(C)(C)c1nc(NCCCN2CCc3ccccc3C2)n2[nH]c(=O)cc2n1 [Example 97, 2-tert-butyl-4-{[3-(1,2,3,4-tetrahydroisoquinolin-2-yl)propyl]amino}-6H,7H-pyrazolo[1,5-a][1,3,5]triazin-7-one]
 |  | 32 µg/mL (≈ 72 µM) | 32 µg/mL (≈ 72 µM) | CN(CCCNc1nc(-c2ccc(C(C)(C)C)cc2)nc2cc(=O)[nH]n12)Cc1ccccc1 [Example 98, 4-({3-[benzyl(methyl)amino]propyl}amino)-2-(4-tert-butylphenyl)-6H,7H-pyrazolo[1,5-a][1,3,5]triazin-7-one]
 |  | 64 µg/mL (≈ 140 µM) | 16 µg/mL (≈ 34.9 µM) | O=c1cc2nc(C34CC5CC(CC(C5)C3)C4)nc(NCCCN3CCc4ccccc4C3)n2[nH]1 [Example 102, 2-(adamantan-1-yl)-4-{[3-(1,2,3,4-tetrahydroisoquinolin-2-yl)propyl]amino}-6H,7H-pyrazolo[1,5-a][1,3,5]triazin-7-one]
 |  | 0.5 µg/mL (≈ 0.915 µM) | 2 µg/mL (≈ 3.66 µM) | CC(C)(C)c1ccc(-c2nc(NCCCNC3Cc4ccccc4C3)n3[nH]c(=O)c(Cc4ccccc4)c3n2)cc1 [Example 108, 8-benzyl-2-(4-tert-butylphenyl)-4-({3-[(2,3-dihydro-1H-inden-2-yl)amino]propyl}amino)-6H,7H-pyrazolo[1,5-a][1,3,5]triazin-7-one]
